Assay results taken from patent US5424205A, “Amyloidin protease and uses thereof” (Athena Neurosciences, Inc., priority 1993, dated 1995).
Where two headings read alike, the source gives them in different places. Starred links: 1 amine or outer side, 2 acyl side, 3 side chain; linkers in the order of their positions; H or OH if unused. Residues, ends and D or L forms follow the SMILES beside them. *: point of attachment. pNA = O=[N+]([O-])c1ccc(N*)cc1; Suc = O=C(CCC(=O)[*:2])[*:1]; MeOSuc = COC(=O)CCC(=O)*; Cbz = O=C(OCc1ccccc1)*; Boc = CC(C)(C)OC(=O)*

Key:
amyloidin [1] = molecular target: T1, amyloidin (Homo sapiens, UniProt P52888); test: Cleavage of short peptide para-nitroanilide substrates by amyloidin (A405); assay type: biochemical; details: pH 7.5; up to 2 hours
T1 construct: from tissue; a purification from blood is also described

amyloidin [2] = molecular target: T1, amyloidin; test: Cleavage of APP592-601 and its analogs by amyloidin (subsite requirements); assay type: biochemical; details: pH 7.5, CaCl2, 37° C., 60 min; RP-HPLC
Experimental: Routinely, 25 ul of enzyme solution were mixed with 10 ul of 1M Tris, pH 7.5, 5 ul 10 mM CaCl2, and 10 ul of a 2 mg/ml Stock solution of APP592-601 in water, or 20 mM Tris, pH 7.5, 0.15M NaCl, in 1.5 ml polypropylene microfuge tubes. The reaction mixtures were incubated for 60 min at 37° C. in a water bath, then quenched with 450 ul ice-cold ethanol, and incubated on ice for a further 20 min. They were centrifuged at 15,000×g for 10 min, and the supernatants transferred to new polypropylene tubes and dried under vacuum. The residue was dissolved in 0.5 ml water, centrifuged at 15,000×g for 5 min, and 200 ul of the supernatant injected onto a 0.46×30 cm Vydac C18 column equilibrated with 0.1% trifluoroacetic acid in water, at 1 ml/min. The column was immediately eluted with a linear gradient to 40% acetronitrile in 0.1% trifluoroacetic acid in water, over 20 minutes. The elution was monitored at 220 nm, and peaks were individually collected, hydrolyzed in 6N HCl at […] for 2 hr, then subjected to quantitative amino-acid analysis in an Applied Biosystems amino-acid analyzer. Once identified, times of elution were used to identify cleavage patterns.
In order to test the subsite requirements of amyloidin in the APP592-601 cleavage assay, analogs of this peptide substrate were synthesized.
Following synthesis and purification, the peptides were then incubated with amyloidin under conditions identical to those developed with APP592-601. The underlined residues designated changes from the native peptide sequence while the arrows indicate peptide cleavage sites. [drawing 5]

amyloidin [3] = molecular target: T1, amyloidin; test: Inhibition of amyloidin by various inhibitors (APP592-601 peptide cleavage); assay type: biochemical
[4] = molecular target: human amyloidin protease (human)
[5] = molecular target: APP592-601 (N-acetyl-Ser-Glu-Val-Lys-Met-Asp-Ala-Glu-Phe-Arg)
amyloidin [6] = molecular target: T1, amyloidin; test: Cleavage of full-length APP from baculovirus cells by amyloidin; assay type: biochemical; details: certain preliminary conditions
brain protease = details: TLC; 125I-labelled peptide; Abraham et al; cited from earlier work
[7] = molecular target: soybean trypsin inhibitor (Sigma Chemicals) immobilized on CH-Sepharose; test: affinity column of immobilized soybean trypsin inhibitor; activity measured in the flow-through

T1 sequence (P52888 whole entry): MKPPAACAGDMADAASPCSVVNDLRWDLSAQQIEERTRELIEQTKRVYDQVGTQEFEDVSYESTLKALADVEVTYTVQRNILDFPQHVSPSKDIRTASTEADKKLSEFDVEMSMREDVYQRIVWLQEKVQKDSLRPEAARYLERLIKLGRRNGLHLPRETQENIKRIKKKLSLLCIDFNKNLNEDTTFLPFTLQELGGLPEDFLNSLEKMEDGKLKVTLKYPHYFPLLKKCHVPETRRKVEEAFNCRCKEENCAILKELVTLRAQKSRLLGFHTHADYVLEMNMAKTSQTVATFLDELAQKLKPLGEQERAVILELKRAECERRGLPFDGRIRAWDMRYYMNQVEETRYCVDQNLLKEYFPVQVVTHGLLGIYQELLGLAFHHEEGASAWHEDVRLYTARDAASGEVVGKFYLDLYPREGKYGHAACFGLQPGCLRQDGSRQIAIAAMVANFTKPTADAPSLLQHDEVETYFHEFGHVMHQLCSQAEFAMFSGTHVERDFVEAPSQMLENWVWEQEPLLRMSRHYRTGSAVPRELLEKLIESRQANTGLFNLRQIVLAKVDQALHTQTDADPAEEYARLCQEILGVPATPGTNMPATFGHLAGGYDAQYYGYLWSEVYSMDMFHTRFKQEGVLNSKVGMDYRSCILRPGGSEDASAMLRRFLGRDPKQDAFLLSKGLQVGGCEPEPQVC

Molecule: CSCC[C@H](NC(=O)[C@@H]1CCCN1C(=O)[C@H](C)NC(=O)[C@H](C)NC(=O)CCC(=O)O)C(=O)Nc1ccc([N+](=O)[O-])cc1 [Suc-AAPM-pNA, Suc-Ala-Ala-Pro-Met-pNA] (Suc-AAPM-pNA)
- cleavage of p-NA substrate by amyloidin (increase in A405) (amyloidin [1]): 0

Molecule: CC(=O)N[C@@H](CO)C(=O)N[C@@H](CCC(=O)O)C(=O)N[C@H](C(=O)N[C@@H](CCCCN)C(=O)N[C@@H](C)C(=O)N[C@@H](CC(=O)O)C(=O)N[C@@H](C)C(=O)N[C@@H](CCC(=O)O)C(=O)N[C@@H](Cc1ccccc1)C(=O)N[C@@H](CCCNC(=N)N)C(N)=O)C(C)C [replacement of Met596 by Ala] (Ac-SEVKADAEFR-NH2)
- site of cleavage by amyloidin (amyloidin [2]): loss of cleavage at this site, but cleavage shifted to the Lys595-Ala596 bond

Molecule: CC(C)C[C@H](NP(=O)(O)O[C@@H]1O[C@@H](C)[C@H](O)[C@@H](O)[C@H]1O)C(=O)N[C@@H](Cc1c[nH]c2ccccc12)C(=O)O [phosphoramidon]
- remaining activity at 100 µg/mL (amyloidin [3]; assay conc. 0.1 mg/ml, 30 min pre-incubation, room temperature, read-out: % Control Activity): 79%
- inhibitory effect on amyloidin (amyloidin [3]; in words): only weakly inhibitory

Molecule: O=C(O)CN(CCN(CC(=O)O)CC(=O)O)CC(=O)O [EDTA, ethylenediaminetetraacetic acid]
- cleavage of APP592-601 by amyloidin (amyloidin [3]): no detectable cleavage
- inhibitory effect on amyloidin (amyloidin [3]): strongly inhibited

Molecule: CSCC[C@H](NC(=O)[C@H](CCC(N)=O)NC(=O)[C@@H](NC(=O)[C@H](CCC(=O)O)NC(=O)[C@H](CO)NC(C)=O)C(C)C)C(=O)N[C@@H](CC(=O)O)C(=O)N[C@@H](C)C(=O)N[C@@H](CCC(=O)O)C(=O)N[C@@H](Cc1ccccc1)C(=O)N[C@@H](CCCNC(=N)N)C(N)=O [Gln595 analog] (Ac-SEVQMDAEFR-NH2)
- site of cleavage by amyloidin (amyloidin [2]): all the cleavage by amyloidin was at the Met-Asp bond

Molecule: CC(C)C[C@H](NC(=O)[C@H]1O[C@@H]1C(=O)O)C(=O)NCCCCN=C(N)N [E-64]
- remaining activity at 1 µg/mL (amyloidin [3]; assay conc. 1 ug/ml, 30 min pre-incubation, room temperature, read-out: % Control Activity): 119%
- inhibitory effect on amyloidin (amyloidin [3]; in words): no inhibitory effect

Molecule: CSCC[C@@H](C=O)NC(=O)[C@H](CC(C)C)NC(=O)[C@H](CC(C)C)NC(C)=O [Calp. Inh. II] (Ac-Leu-Leu-Met-aldehyde)
- remaining activity at 50 µg/mL (amyloidin [3]; assay conc. 50 ug/ml, 30 min pre-incubation, room temperature, read-out: % Control Activity): 130%
- inhibitory effect on amyloidin (amyloidin [3]; in words): no inhibitory effect

Molecule: α1-antichymotrypsin
- % Control Activity (cleavage of APP592-601) (% control activity) [4]: 121

Molecule: c1cnc2c(c1)ccc1cccnc12 [1,10-phen., 1,10phenanthroline]
- remaining activity at 100 µM (amyloidin [3]; assay conc. 0.1 mM, stock in DMSO, 30 min pre-incubation, room temperature, read-out: % Control Activity): 75%
- inhibitory effect on amyloidin (amyloidin [3]; in words): only weakly inhibitory

Molecule: COC(=O)CCC(=O)N[C@@H](C)C(=O)N[C@@H](C)C(=O)N1CCC[C@H]1C(=O)N[C@H](C(=O)Nc1ccc([N+](=O)[O-])cc1)C(C)C [MeS-AAPV-pNA, Methoxysuccinylalanyl-alanyl-prolyl-valyl-] (MeOSuc-AAPV-pNA)
- cleavage of p-NA substrate by amyloidin (increase in A405) (amyloidin [1]): 0

Molecule: human amyloidin protease (enzyme)
- increase in absorbance at 405 nm (Boc-AAd-Pna): 0
- increase in absorbance at 405 nm (Z-RK-pNA): 0
- increase in absorbance at 405 nm (Ac-AD-pNA): 0
- increase in absorbance at 405 nm (Suc-AAPM-pNA): 0
- increase in absorbance at 405 nm (Ac-EVKM-PNA): 0
- increase in absorbance at 405 nm (Z-AA-pNA): 0
- increase in absorbance at 405 nm (MeS-AAPV-pNA): 0
- increase in absorbance at 405 nm (Z-RR-pNA): 0
- increase in absorbance at 405 nm (Suc-AAPF-pNA): 0
- Specific Activity (area/min/mg), DAEFR area by RP-HPLC [5]: 2080 area/min/mg

Molecule: full-length protein (APP): full-length protein (APP) produced by baculovirus cells transformed with the gene encoding APP
- cleavage of full-length APP by amyloidin (amyloidin [6]): did not cleave

Molecule: O=S(=O)(F)Cc1ccccc1 [PMSF, phenylmethylsulfonyl fluoride]
- % Control Activity (amyloidin [3]): 69%

Molecule: N=C(N)NCCC[C@H](NC(=O)OCc1ccccc1)C(=O)N[C@@H](CCCNC(=N)N)C(=O)Nc1ccc([N+](=O)[O-])cc1 [Z-RR-pNA, benzyloxycarbonyl arginylarginyl-] (Cbz-Arg-Arg-pNA)
- cleavage of p-NA substrate by amyloidin (increase in A405) (amyloidin [1]): 0

Molecule: CSCC[C@H](NC(=O)[C@H](CCCCN)NC(=O)[C@@H](NC(=O)[C@H](CCC(=O)O)NC(C)=O)C(C)C)C(=O)Nc1ccc([N+](=O)[O-])cc1 [Ac-EVKM-PNA, acetylglutamyl-valyl-lysyl-methinyl-pNA] (Ac-EVKM-pNA)
- cleavage of p-NA substrate by amyloidin (increase in A405) (amyloidin [1]): 0

Molecule: CC(C)C[C@H](NC(=O)[C@@H](NC(=O)N[C@@H](Cc1ccccc1)C(=O)O)[C@@H]1CCN=C(N)N1)C(=O)N[C@H](C=O)Cc1ccccc1 [chymostatin]
- remaining activity at 25 µg/mL (amyloidin [3]; read-out: % Control Activity): 77%

Molecule: α1-PI: general plasma serine proteinase inhibitor
- % Control Activity (amyloidin [3]; assay conc. 30 ug/ml, 30 min pre-incubation, room temperature): 98%
- inhibitory effect on amyloidin (amyloidin [3]; in words): Neither α-1-proteinase inhibitor or α-1-antichymotrypsin, two general plasma serine proteinase inhibitors, had any inhibitory effect

Molecule: aprotinin
- % Control Activity (amyloidin [3]): 102%
- inhibitory effect on amyloidin (amyloidin [3]): nor did aprotinin

Molecule: HSEVKMDAEF
- sites of cleavage by brain protease (brain protease): primarily at three sites, between the Lys-Met, Met-Asp, and Asp-Ala, with some cleavage obtained at His-Ser

Molecule: C[C@H](NC(=O)CCC(=O)O)C(=O)N[C@@H](C)C(=O)N1CCC[C@H]1C(=O)N[C@@H](Cc1ccccc1)C(=O)Nc1ccc([N+](=O)[O-])cc1 [Suc-AAPF-pNA, Succinylalanyl-alanyl-prolyl-phenylalanyl-] (Suc-AAPF-pNA)
- cleavage of p-NA substrate by amyloidin (increase in A405) (amyloidin [1]): 0

Molecule: α1-proteinase inhibitor
- % Control Activity (cleavage of APP592-601) (% control activity) [4]: 98

Molecule: Butyloxycarbonylalanyl-alanyl-aspartyl- (Boc-Ala-Ala-Asp-pNA; SMILES C[C@H](NC(=O)OC(C)(C)C)C(=O)N[C@@H](C)C(=O)N[C@@H](CC(=O)O)C(=O)Nc1ccc([N+](=O)[O-])cc1) [Boc-AAd-Pna]
- cleavage of p-NA substrate by amyloidin (increase in A405) (amyloidin [1]): 0

Molecule: CC(=O)N[C@@H](C)C(=O)N[C@@H](CC(=O)O)C(=O)Nc1ccc([N+](=O)[O-])cc1 [Ac-AD-pNA, Acetylalanyl-aspartyl-] (Ac-Ala-Asp-pNA)
- cleavage of p-NA substrate by amyloidin (increase in A405) (amyloidin [1]): 0

Molecule: C[C@H](NC(=O)OCc1ccccc1)C(=O)N[C@@H](C)C(=O)Nc1ccc([N+](=O)[O-])cc1 [Z-AA-pNA, benzyloxycarbonylalanyl-alanyl-] (Cbz-Ala-Ala-pNA)
- cleavage of p-NA substrate by amyloidin (increase in A405) (amyloidin [1]): 0

Molecule: N=C(N)NCCC[C@H](NC(=O)OCc1ccccc1)C(=O)N[C@@H](CCCCN)C(=O)Nc1ccc([N+](=O)[O-])cc1 [Z-RK-pNA, benzyloxycarbonylarginyl-lysyl-] (Cbz-Arg-Lys-pNA)
- cleavage of p-NA substrate by amyloidin (increase in A405) (amyloidin [1]): 0

B1: rat mast cell protease I (RMCP I) (protein)
chain: IIGGVESRPHSRPYMAHLEITTERGYKATCGGFLVTRQFVMTAAHCKGRETTVTLGVHDVSKTESTQQKIKVEKQIVHPNYNFYSNLHDIMLLKLQKKAKVTPAVDVIPLPQPSDFLKPGKMCRAAGWGQTGVTKPTSNTLREVKQRIMDKEACKNYFHYNYNFQVCVGSPRKIRSAYKGDSGGPLVCAGVAHGIVSYGRGDAKPPAVFTRISPYVPWINKVIKGKDLTSLSLHESESPS
- percent of Suc-Ala-Ala-Pro-Phe-pNA hydrolysing activity bound to the matrix [7]: 95% of this activity had bound to the matrix
